# Reference: patent US8044103B2, “Cyclic dipeptides and azetidinone compounds and their use in treating CNS injury and neurodegenerative disorders” (Georgetown University, priority 1998, dated 2011)
# Columns and labels:
# [1] = test system: mice following controlled cortical impact injury (CCI); experiment: Beam walking task after controlled cortical impact injury (chronic neurological recovery); assay type: in vivo, Male C57Bl/6 mice
# Procedure: Male C57Bl/6 mice (20-25 g) were obtained from Taconic Farms (Germantown, N.Y.) and housed in an area directly adjoining surgical and behavioral rooms for at least 1 week prior to any procedures. All mice were maintained at a constant temperature (22±2° C.) and a 12 hr light/dark cycle, with lights on at 6 am and all behavioral testing performed during the light cycle. Food and water were available ad libitumn.
# The injury device consisted of a microprocessor-controlled pneumatic impactor with a 3.5 mm diameter tip. The impactor is vertically mounted on a mill table (Sherline, USA) which allows for precise adjustment in the vertical plane above the mouse head, which itself is secured to a stereotaxic apparatus (David Kopf Instruments, CA) attached to the instrument. The core rod of a linear voltage differential transducer (LVDT, Serotec, USA) is attached to the lower end of the impactor to allow measurement of velocities between 3.0 and 9.0 m/s. Velocity of the impactor is controlled by fine tuning both positive and negative (back) air pressures. An oscilloscope (Tektronix, USA) records the time/displacement curve produced by the downward force on the LVDT, allowing precise measurement of the impactor velocity.
# Surgical anesthesia was induced and maintained with 4% and 2% isoflurane respectively, using a flow rate of 1.0-1.5 l oxygen per minute. Depth of anesthesia was assessed by monitoring respiration rate and palpebral and pedal-withdrawal reflexes. The animal was then placed onto a heated pad and core body temperature was monitored and maintained at 38+/−0.2° C. The head was mounted in a stereotaxic frame and the surgical site clipped and prepared with a series of three Nolvasan scrubs followed by sterile saline rinses. A 10 mm mid-line incision was made over the skull, the skin and fascia reflected, and a 4 mm craniotomy made on the central aspect of the left parietal bone with a tissue punch (Roboz, USA). Great care was taken with the removal of the parietal bone to avoid injury to the underlying dura mater which was continuously bathed in sterile normal saline warmed to 37.5° C. The impounder tip of the pneumatic injury device was cleaned with a pad, soaked in absolute alcohol, positioned to the surface of the exposed dura and automatically withdrawn the 44 mm stroke distance. Following injury at a moderate (6.0 m/s velocity, 1 mm tissue deformation depth) level, the incision was closed with interrupted 6-0 silk sutures, anaesthesia was discontinued and the mouse was placed into a heated cage to maintain normothermia for 45 minutes post-injury. All animals were monitored carefully for at least 4 hours post-surgery and then daily. To minimize variation between animals due to anaesthesia during acute neurological testing, 20 minutes was allowed for surgery and 5 minutes for suturing for each animal.
# Conscious mice were placed in a mouse restrainer and injected via the lateral tail vein with either normal saline (injured controls; n=6), 1 mg/kg Compound 2a (n=8), Compound 10b (n=6), Compound 11b (n=6) or Compound 14c (n=6) at 30 minutes following controlled cortical impact injury (CCI). The values for n represents the number of mice in the particular treatment group. The investigator was blinded to drug treatment both at the time of surgery and for neurological and behavioral scoring.
# Chronic neurological recovery was evaluated for all animals using a beam walking task, a method which is particularly good at discriminating fine motor coordination differences between injured and sham-operated animals. The device consisted of a narrow wooden beam 6 mm wide and 120 mm in length which was suspended 300 mm above a 60 mm-thick foam rubber pad. The mouse was placed on one end of the beam and the number of footfaults for the right hindlimb recorded over 50 steps counted in either direction on the beam. A basal level of competence at this task was established before surgery with an acceptance level of <10 faults per 50 steps. […]
# [2] = test system: rats following moderate fluid percussion injury; experiment: Mortality after moderate fluid percussion injury; assay type: in vivo, Male Sprague-Dawley rats; conditions: 1 mg/kg i.v. 30 min following moderate fluid percussion injury; died before the end of the study; saline 21.4% and 37.5%
# Procedure: Rats were anesthetized with sodium pentobarbital (70 mg/kg i.p.), intubated, and implanted with femoral venous and arterial catheters. Brain temperature was assessed indirectly through a thermister in the temporalis muscle. Body temperature was maintained through a feedback-controlled heating blanket. Blood pressure was continuously monitored, and arterial blood gases analyzed periodically. After the animal was placed in a stereotaxic frame, the scalp and temporal muscle were reflected, and a small craniotomy (5 mm) located midway between the lambda and bregma sutures over the left parietal cortex allowed insertion of a Leur-Loc that is cemented in place. The fluid-percussion head injury device, manufactured by the Medical College of Virginia, consists of a plexiglass cylindrical reservoir filled with isotonic saline; one end includes a transducer that is mounted and connected to a 5 mm tube that attaches through a male Leur-Loc fitting to the female Leur-Loc cemented at the time of surgery. A pendulum strikes a piston at the opposite end of the device, producing a pressure pulse of approximately 22 msec duration, leading to deformation of underlying brain. The degree of injury is related to the pressure pulse, expressed in atmospheres (atm): 2.6 atm in our laboratory produces a moderate injury with regard to neurological and histological deficit. Sham (control) animals undergo anesthesia and surgery without fluid percussion brain injury. […]
# Continuous variables compared across groups were examined using an analysis of variance (ANOVA) followed by Bonferroni correction (rightin reflex). Continuous variables subjected to repeated measurements over a period of time (cardiovascular and core temperature measurements) were analyzed using a repeated measurements ANOVA followed by Tukey's pairwise comparison at each time point. Ordinal measurements (composite neurological scores) were evaluated using the non-parametric Kruskal-Wallis ANOVA with individual, non-parametric Mann-Whitney U-tests. […]
structure (smiles),measurement,setting,value
"O=C1NC2(CCCCC2)C(=O)N2CCC[C@@H]12 [Compound 2a, Cyclo[(1-Amino-1-Cyclohexane-Carboxylic Acid)-Pro]]","beam walking, time course of recovery of function",[1]; 1 mg/kg i.v. at 30 min following CCI,began to show some recovery of function after 3 days
same,beam walking performance (right hindlimb footfaults) compared with saline-treated injured animals,"[1]; 1 mg/kg i.v. at 30 min following CCI, 14 days following injury, p<0.05",significant improvement in performance
same,beam walking outcome (right hindlimb footfaults) compared with saline-treated animals,"[1]; 1 mg/kg i.v. at 30 min following CCI, 21 days post-injury, p<0.01",continued improvement in outcome
same,dose with optimal effects in beam walking (inverted U-shaped dose-response curve),"[1]; 0.1, 1.0 or 10.0 mg/kg at 60 minutes following CCI",1 mg/kg
same,mortality rate,[2],25%
